# In BindingDB's records for doi:10.1021/jm00398a002 (University of Kansas, 1988):
# Biological target: Adenosylhomocysteinase (Bos taurus)
# Experiment: Time course of inactivation of bovine liver S-adenosyl-homocysteine hydrolase
row,Ki [nM],Structure (SMILES)
1,41,Nc1ncnc2c1ncn2[C@@H]1C=C[C@@H](O)[C@H]1O
2,35,Nc1nccc2c1ncn2C1C=C[C@@H](O)[C@H]1O (some centres not stated)
